Reference: US20210094922A1, “Dyes for Analysis of Soluble Protein Aggregates or Misfolded Protein Oligomers” (The Penn State Research Foundation, priority 2018, published 2021)

Experiments:
[1] = Photophysical parameters of fluorophores in glycerol; assay type: physicochemical; conditions: for B (brightness): calculated using B = Φϵ; for fluorescence in solvents with increasing concentrations of glycerol: glycerol:H2O mixtures; for Φ (quantum yield) / λem / λex / decrease in brightness relative to 3 / diminished quantum yield relative to 3: in glycerol; for λabs: maximum absorbance measured in glycerol; for ϵ (extinction coefficient): measured in glycerol
Description: FP analogues (20 μM) were prepared in glycerol:H2O mixture with increasing glycerol concentrations. In addition, fluorescence intensity in 1,4-dioxane was measured to evaluate their response to polarity. Fluorescence measurement was carried out using a Tecan infinite M1000Pro fluorescence microplate reader at excitation and emission wavelengths as indicated. All readings were normalized against the fluorescence intensity in 100% glycerol as 1. Error bars: standard error (n=3).
FP analogues (20 μM) were prepared in glycerol. Spectra were collected with emission wavelength of 420 nm for 1, 525 nm for 2, 620 nm for 3, 3a and 3b. All measurements were carried out using a Tecan infinite M1000Pro fluorescence microplate reader.
FP analogues (20 μM) were prepared in glycerol. Spectra were collected with excitation wavelength of 370 nm for 1, 455 nm for 2, 530 nm for 3 and 3b, 485 nm for 3a. All measurements were carried out using a Tecan infinite M1000Pro fluorescence microplate reader.
FP analogues (10 μM) were prepared in glycerol. Spectra were collected with 10 mm quartz cuvette. All measurements were carried out using Agilent 300 UV-Vis spectrophotometer.
However, the quantum yield (QY, Φ=0.001 for 1 and Φ=0.027 for 2 in glycerol, Table 2) was much lower than that of a GFP (Φ=0.79).

[2] = biological target: SOD1-A4V-Halo (Homo sapiens, UniProt P00441, A5V); experiment: In vitro heat-induced aggregation of SOD1-A4V-Halo conjugates; assay type: biochemical
Chain of SOD1-A4V-Halo (P00441 with tags, fused parts or gaps A5V): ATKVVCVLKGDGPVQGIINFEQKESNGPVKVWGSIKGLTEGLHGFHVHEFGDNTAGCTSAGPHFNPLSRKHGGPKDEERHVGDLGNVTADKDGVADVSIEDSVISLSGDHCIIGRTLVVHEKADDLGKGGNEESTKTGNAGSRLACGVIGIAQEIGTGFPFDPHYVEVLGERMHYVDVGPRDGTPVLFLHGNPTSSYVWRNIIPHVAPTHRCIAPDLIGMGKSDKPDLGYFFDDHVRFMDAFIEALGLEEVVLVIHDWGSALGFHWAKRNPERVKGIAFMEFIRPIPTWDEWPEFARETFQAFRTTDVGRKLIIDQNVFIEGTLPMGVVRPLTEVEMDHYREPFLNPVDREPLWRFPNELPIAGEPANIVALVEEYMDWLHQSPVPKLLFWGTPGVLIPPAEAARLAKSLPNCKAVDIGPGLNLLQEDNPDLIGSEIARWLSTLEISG
Source text: (B-C) Excitation and emission spectra of 4 (with misfolded oligomers of SOD1-A4V-Halo) and 5 (with insoluble aggregates of SOD1-A4V-Halo).
The inventors installed Halo-tag reactive warhead to 2, resulting in 5.

[3] = biological target: T1, α-synuclein (Homo sapiens, UniProt P37840); experiment: α-synuclein aggregation assay, fluorogenic detection; assay type: biochemical
T1 construct: made in house; host or cells: E. coli (pET29b vector)
Description: Aggregation of α-synuclein was carried out using method described in the Supporting Information. Subsequently, half of reaction mixture was loaded on a 96-well plate to measure fluorescence intensity of 3 (a) or ThT (b) for the reaction mixture (T). The other half was centrifuged at 21,000 g for 30 minutes at 4° C. The supernatant fraction (S) and pellet fraction (P, after resuspension with a volume that was equal to that of the S fraction) were loaded on a 96-well plate to measure fluorescence intensity. 10 μM 3 or ThT was also incubated in buffer as a control. Parameters for fluorescence measurement: 3 (Ex=530 nm/Em=600 nm) and ThT (Ex=440 nm/Em=480 nm). Error bars: standard error (n=3).
HEK293T cultures were seeded at 25% confluency 24 h prior to transfection in 12-well plate for time dependent fluorescence plate reader analysis or 35 mm glass bottom culture dishes (Poly-d-lysine coated, MatTek Corporation). Cells were grown in DMEM medium supplemented with 10% FBS and penicillin-streptomycin antibiotics until they reached 50-60% confluency. Transfection was performed using X-tremeGene™ 9 DNA transfection reagent (Roche). After 24 h of protein expression and co-translational labeling, medium was replaced with fresh DMEM to diffuse out unbound ligands. After 30 min, media was replaced by fresh DMEM medium containing DMSO vehicle or NaAsO2 (50 μM). Cells were incubated for 18 h, 37° C. in a CO2 incubator. Nuclear stain Hoechst 33342 ([…]) was added to the medium 30 min prior to confocal imaging. Aggregation Assays. α-synuclein: Aggregation solution contained 70 or 140 μM α-synuclein in 20 mM HEPES (pH 7.5) and 100 mM NaCl. 10 μM of 3 or ThT was added to the solution at the beginning of reaction. Previous studies have shown that the kinetics of α-synuclein aggregation is unaffected by the addition of ThT. A volume of 150 μL of the mixture was pipetted into a well of clear-bottom 96-well plate, which was subsequently sealed with Mylar plate sealers. The plate was loaded on a Heidolph vibrating platform shaker and shake at 1,350 rpm at 37° C. At indicated time points, fluorescence reading was obtained using a Tecan M1000Pro fluorescence plate reader. Fluorescence intensity was recorded at Ex=530 nm/Em=600 nm for 3 and Ex=450 nm/Em=480 nm for ThT. Each sample was run in triplicate or quadruplicate. SOD1(V31A): Aggregation was carried out with DPBS buffer containing indicated concentrations of EDTA that is used to chelate the structural metal of SOD1. Aggregation solution contained 42 μM SOD1(V31A) or SOD1(V31A)-Halo and […] of 3 was added to the solution at the beginning of reaction. Reaction was carried out quiescently at indicated temperatures. Fluorescence of 3 was measured at Ex=530 nm/Em=600 nm.

Row | B (brightness) [1] | fluorescence in solvents with increasing concentrations of glycerol [1] | Φ (quantum yield) [1] | λem [1] [nm] | λex [1] [nm] | λabs [1] [nm] | ϵ (extinction coefficient) [1] | decrease in brightness relative to 3 [1] [fold] | diminished quantum yield relative to 3 [1] | detection of soluble oligomers of α-syn [3] | stoichiometry of fluorescence intensity with α-syn concentration ([3]; 70 vs 140 μM α-syn) | SMILES | which POI conformations activate fluorescence [2]
1 | 20.6 M⁻¹ cm⁻¹ | elevated fluorescence | 0.001 | 429 | 370 | 376 | 20,592 M^−1cm^−1 | – | – | – | – | CC1=N/C(=C\c2ccc(O)cc2)C(=O)N1CC(=O)OC(C)(C)C [Compound 1, (Z)-tert-butyl 2-(4-(4-(hydroxy)benzylidene)-2-methyl-5-oxo-4,5-dihydro-1H-imidazol-1-yl)acetate] | –
2 | 640 M⁻¹ cm⁻¹ | elevated fluorescence | 0.027 | 521 | 450 | 452 | 23,718 M^−1cm^−1 | – | – | – | – | CC1=N/C(=C\c2ccc(N(C)C)cc2)C(=O)N1CC(=O)OC(C)(C)C [Compound 2, (Z)-tert-butyl 2-(4-(4-(dimethylamino)benzylidene)-2-methyl-5-oxo-4,5-dihydro-1H-imidazol-1-yl)acetate] | only activates fluorescence when POI forms insoluble aggregates
3 | 1,386 M^−1cm^−1 | – | 0.1 | 621 | 485 | 500 | 13,863 M^−1cm^−1 | ~5 | ~50% | – | – | CN(C)c1ccc(/C=C/C2=NC(=C\c3ccccc3)/C(=O)N2CC(=O)OC(C)(C)C)cc1 [Compound 3a, tert-butyl 2-((Z)-4-benzylidene-2-((E)-4-(dimethylamino)styryl)-5-oxo-4,5-dihydro-1H-imidazol-1-yl)acetate] | –
4 | 2,089 M^−1cm^−1 | – | 0.232 | 630 | 530 | 533 | 9,004 M^−1cm^−1 | ~5 | does not affect quantum yield | – | – | CN(C)c1ccc(/C=C2N=C(/C=C/c3ccccc3)N(CC(=O)OC(C)(C)C)C\2=O)cc1 [Compound 3b, tert-butyl 2-((Z)-4-(4-(dimethylamino)benzylidene)-5-oxo-2-((E)-styryl)-4,5-dihydro-1H-imidazol-1-yl)acetate] | –
5 | – | – | – | – | – | – | – | – | – | fails to detect soluble oligomers | such stoichiometry was absent | Cc1ccc2c(c1)sc(-c1ccc(N(C)C)cc1)[n+]2C.[Cl-] [Thioflavin T, thioflavin T, reference compound] | –
